Laboratory results as given in the supplement of paper PMC10307832.

Experiments:
Assay in all cases: relative viability (nuclei count vs DMSO), 5 days (fraction); higher = more cells survive
[1] = compound: CC(O)(CS(=O)(=O)c1ccc(F)cc1)C(=O)Nc1ccc(C#N)c(C(F)(F)F)c1 [Bicalutamide] + C[C@]1(O)C[C@@H](c2nc(-c3ccc4ccc(-c5ccccc5)nc4c3)c3c(N)nccn32)C1 [Linsitinib] (partner 1 µM)
Method in brief: (§1)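 The day after seeding in 1536-well plates, lung cancer cell lines were treated by pin tool with a single drug, or with a fixed anchor-drug dose together with five library-drug doses (not always all listed) in √10 steps. After 5 days, a combined fix-and-stain solution (final 0.05% Triton X-100, 1% formaldehyde, 1 ug/ml Hoechst) was added. Nuclei counted on 4× images gave relative viability as treated counts over vehicle counts, reported as the median of duplicate plates.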

[2] = compound: C(C(=O)C(=O)O)Br [Bromopyruvate] + CC1(C)CCC(c2ccc(Cl)cc2)=C(CN2CCN(c3ccc(C(=O)NS(=O)(=O)c4ccc(N[C@H](CCN5CCOCC5)CSc5ccccc5)c(S(=O)(=O)C(F)(F)F)c4)cc3)CC2)C1 [Navitoclax] (partner 0.5 µM)
Method in brief: as §1

[3] = compound: C(C(=O)C(=O)O)Br [Bromopyruvate] + CC(=O)c1c(C)c2cnc(Nc3ccc(N4CCNCC4)cn3)nc2n(C2CCCC2)c1=O [Palbociclib] (partner 0.5 µM)
Method in brief: as §1

[4] = compound: CC(O)(CS(=O)(=O)c1ccc(F)cc1)C(=O)Nc1ccc(C#N)c(C(F)(F)F)c1 [Bicalutamide] + C[C@@H](Oc1cc(-c2cnn(C3CCNCC3)c2)cnc1N)c1c(Cl)ccc(F)c1Cl [Crizotinib] (partner 1 µM)
Method in brief: as §1

Cell Line	relative viability ([1]; first compound 0.08 µM)	relative viability ([1]; first compound 0.253 µM)	relative viability ([1]; first compound 0.8 µM)	relative viability ([1]; first compound 2.53 µM)	relative viability ([2]; first compound 1 µM)	relative viability ([2]; first compound 3.162 µM)	relative viability ([2]; first compound 10 µM)	relative viability ([2]; first compound 31.62 µM)	relative viability ([2]; first compound 100 µM)	relative viability ([3]; first compound 1 µM)	relative viability ([3]; first compound 3.162 µM)	relative viability ([3]; first compound 10 µM)	relative viability ([3]; first compound 31.62 µM)	relative viability ([3]; first compound 100 µM)	relative viability ([4]; first compound 0.08 µM)	relative viability ([4]; first compound 0.253 µM)	relative viability ([4]; first compound 0.8 µM)	relative viability ([4]; first compound 2.53 µM)
HCC-366	0.659	0.541	0.905	0.624	1.04	1.05	1.14	1.04	1.03	0.405	0.361	0.43	0.395	0.38	0.599	0.473	0.698	0.328
HCC-827	0.945	0.896	0.993	0.964	1.02	1	0.99	1.12	0.996	0.434	0.542	0.472	0.541	0.517	0.922	0.911	0.942	0.952
HOP-62	0.89	0.903	0.963	1.02	1.05	0.961	1.12	1.08	0.899	0.432	0.443	0.416	0.343	0.341	0.807	0.936	1.33	1
IA-LM	0.823	0.641	0.616	0.646	0.798	0.723	0.654	0.763	0.818						1.14	0.819	0.88	1.02
LC-2-ad	0.818	0.796	0.847	0.891	0.436	0.404	0.35	0.459	0.476	0.528	0.487	0.466	0.488	0.499	0.495	0.427	0.462	0.482
LCLC-97TM1	0.185	0.188	0.199	0.185			0.538	0.492	0.316	0.203	0.21	0.276	0.239	0.214	0.478	0.369	0.317	0.301
LCLC-103H	1.04	1.04	1.14	1.05						0.505	0.486	0.455	0.415	0.528	1.06	1.04	1	1.02
LK-2	0.715	0.349	0.64	0.657	0.9	0.85	0.818	0.888	0.772	0.688	0.858	0.797	0.637	0.678	0.252	0.209	0.2	0.225
LOU-NH91	0.921	0.778	0.96	1.01	0.835	0.611	0.759	0.84	0.783	0.53	0.545	0.494	0.544	0.587	0.726	0.681	0.766	0.744
NCI-H358	0.763	0.65	0.841	0.786						0.113	0.132	0.168	0.127	0.142	0.831	0.616	0.44	0.399
NCI-H522										1.02	1.03	1	1.02	1.1				
NCI-H596	1.09	0.968	1.25	1.14	0.871	0.964	1.1	0.877	1.07						0.898	1.51	1.08	1.04
NCI-H650	0.906	1.07	1.1	0.489						0.385	0.306	0.316	0.338	0.335	0.725	0.645	0.932	0.438
NCI-H661	0.538	0.63	0.612	0.61						0.401	0.387	0.378	0.403	0.428	1.14		0.881	0.989
NCI-H1299	1.04	1.03	1.17	1.01	1.04	1.07	1.03	1.03	1.02						0.969	0.93	0.957	0.911
NCI-H1395	1.22	1.03	1.09	1	1.24	1.24	1.28	1.17	1.21	0.551	0.531	0.724	0.614	0.662				
NCI-H1563	1.28	1.2	1.12	1.07											0.863	0.861	0.794	0.743
NCI-H1648										0.211	0.242	0.283	0.298	0.328				
NCI-H1650					1.09	1.31	1.42	1.47	1.19	0.328	0.328	0.309	0.368	0.345	0.892	0.937	0.979	0.992
NCI-H1703	0.815	0.79	0.833	0.495	1.06	1.22	1.42	1.34	1.16						0.621	0.511	0.624	0.397
NCI-H1793	0.731	0.568	0.894	0.686	0.673	0.376	0.377	0.516	0.511	0.291	0.354	0.325	0.365	0.341				
NCI-H2170					0.549	0.533	0.577	0.541	0.57	0.365	0.421	0.389	0.396	0.411	1.12	1.18	1.39	1.18
NCI-H2342										0.487	0.55	0.476	0.485	0.458				
SW 900										0.524	0.486	0.536	0.589	0.5				
